Experimental findings from patent US6608086B2, “Dihydropyridines and new uses thereof” (Synaptic Pharmaceutical Corporation, priority 1993, dated 2003) are described below.

Read-outs that look alike come from different tables or passages of the source.

In data set [1] the target is T1, α1A Human Adrenergic Receptor (Homo sapiens, UniProt P25100).
T1 construct: The entire coding region of α1A (1719 bp); expressed in transfected cells
T1 sequence (P25100 1-572): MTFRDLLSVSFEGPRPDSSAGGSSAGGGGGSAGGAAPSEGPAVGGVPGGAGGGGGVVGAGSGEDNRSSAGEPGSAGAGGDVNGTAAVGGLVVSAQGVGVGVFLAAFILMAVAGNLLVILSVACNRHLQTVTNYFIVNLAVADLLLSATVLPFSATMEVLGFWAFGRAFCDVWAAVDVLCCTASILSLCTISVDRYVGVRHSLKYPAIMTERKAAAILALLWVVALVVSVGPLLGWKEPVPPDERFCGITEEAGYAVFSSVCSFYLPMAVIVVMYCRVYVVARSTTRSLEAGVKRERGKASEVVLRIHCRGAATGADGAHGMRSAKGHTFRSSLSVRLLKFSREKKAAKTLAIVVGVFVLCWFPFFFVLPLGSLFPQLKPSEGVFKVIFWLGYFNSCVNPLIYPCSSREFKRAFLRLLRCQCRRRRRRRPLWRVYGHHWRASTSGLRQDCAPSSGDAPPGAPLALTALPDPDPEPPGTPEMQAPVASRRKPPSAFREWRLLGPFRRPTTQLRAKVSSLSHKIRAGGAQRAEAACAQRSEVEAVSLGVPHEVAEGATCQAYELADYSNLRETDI
The data set is described as follows: Radioligand binding, [3H]prazosin, cloned human α1A adrenergic receptor. The note with it: [3H]prazosin. As for the experimental part:
(§1) The protocols for these experiments are given below.
(§2) These cell lines were prepared by transfecting the cloned cDNA or cloned genomic DNA or constructs containing both genomic DNA and cDNA encoding the human α-adrenergic receptors as follows:
α1A Human Adrenergic Receptor:
The cells were grown, in a controlled environment (37° C., 5% CO2), as monolayers in Dulbecco's modified Eagle's Medium (GIBCO, Grand Island, N.Y.) containing 25 mM glucose and supplemented with 10% bovine calf serum, 100 units/ml penicillin g, and 100 μg/ml streptomycin sulfate.
(§3) Radioligand Binding Assays:
(§4) Transfected cells from culture flasks were scraped into 5 ml of 5 mM Tris-HCl, 5 mM EDTA, pH 7.5, and lysed by sonication. The cell lysates were centrifuged at 1000 rpm for 5 min at 4° C., and the supernatant was centrifuged at 30,000× g for 20 min at 4° C. The pellet was suspended in 50 mM Tris-HCl, 1 mM MgCl2, and 0.1% ascorbic acid at pH 7.5. Binding of the α1 antagonist [^3H]prazosin (0.5 nM, specific activity 76.2 Ci/mmol) to membrane preparations of LM(tk−) cells was done in a final volume of 0.25 ml and incubated at 37° C. for 20 min. Nonspecific binding was determined in the presence of 10 μM phentolamine. The reaction was stopped by filtration through GF/B filters using a cell harvester.

Data set [2] addresses T2, α1B Human Adrenergic Receptor (Homo sapiens, UniProt P35368).
T2 construct: The entire coding region of α1B (1563 bp); expressed in transfected cells
T2 sequence (P35368 1-520): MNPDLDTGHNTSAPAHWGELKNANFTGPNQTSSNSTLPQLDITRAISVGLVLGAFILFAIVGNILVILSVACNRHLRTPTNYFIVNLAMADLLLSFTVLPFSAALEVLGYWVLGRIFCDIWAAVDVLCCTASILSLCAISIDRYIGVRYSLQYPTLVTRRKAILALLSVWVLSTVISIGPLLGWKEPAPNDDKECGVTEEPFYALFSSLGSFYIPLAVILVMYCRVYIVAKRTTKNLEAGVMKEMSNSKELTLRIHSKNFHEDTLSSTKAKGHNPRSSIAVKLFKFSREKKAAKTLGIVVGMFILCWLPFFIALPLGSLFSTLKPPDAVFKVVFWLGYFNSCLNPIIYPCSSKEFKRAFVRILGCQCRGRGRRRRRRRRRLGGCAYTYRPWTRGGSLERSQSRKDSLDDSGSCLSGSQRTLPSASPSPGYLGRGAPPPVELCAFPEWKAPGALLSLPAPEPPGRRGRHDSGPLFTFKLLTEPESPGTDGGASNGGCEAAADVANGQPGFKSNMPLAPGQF
The data set is described as follows: Radioligand binding, [3H]prazosin, cloned human α1B adrenergic receptor. As for the experimental part:
as §1, §2
α1B Human Adrenergic Receptor:
The construct involved ligating the full-length containing EcoRI brainstem cDNA fragment from λ ZapII into the expression vector. Stable cell lines were selected as described above.
as §3, §4

Data set [3] deals with T3, α1C Human Adrenergic Receptor (Homo sapiens, UniProt P35348).
T3 construct: The entire coding region of α1C (1401 bp); expressed in transfected cells
T3 sequence (P35348 1-466): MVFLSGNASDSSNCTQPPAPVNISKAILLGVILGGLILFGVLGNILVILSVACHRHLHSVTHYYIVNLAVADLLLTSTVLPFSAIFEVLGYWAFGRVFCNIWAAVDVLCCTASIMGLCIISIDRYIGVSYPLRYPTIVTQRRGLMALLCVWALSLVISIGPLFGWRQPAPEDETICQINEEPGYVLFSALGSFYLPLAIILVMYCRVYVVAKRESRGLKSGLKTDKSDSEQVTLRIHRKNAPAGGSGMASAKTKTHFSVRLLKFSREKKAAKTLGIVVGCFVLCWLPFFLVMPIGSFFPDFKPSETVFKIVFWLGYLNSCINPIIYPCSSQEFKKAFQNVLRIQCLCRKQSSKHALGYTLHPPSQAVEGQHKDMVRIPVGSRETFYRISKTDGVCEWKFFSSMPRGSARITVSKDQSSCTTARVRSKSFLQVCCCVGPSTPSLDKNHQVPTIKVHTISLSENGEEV
Description: Radioligand binding, [3H]prazosin, cloned human α1C adrenergic receptor. As for the experimental part: as §1, §2
α1C Human Adrenergic Receptor:
The construct involved ligating three partial overlapping fragments: a 5′, 0.6 kb HincII genomic clone, a central 1.8 EcoRI hippocampal cDNA clone, and a 3′ 0.6Kb PstI genomic clone. The hippocampal cDNA fragment overlaps with the 5′ and 3′ genomic clones so that the HincII and PstI sites at the 5′ and 3′ ends of the cDNA clone, respectively, were utilized for ligation. This full-length clone was cloned into the KpnI site of the expression vector, using the 5′ and 3′ KpnI sites of the fragment, derived from vector (i.e., pBluescript) and 3′-untranslated sequences, respectively. Stable cell lines were selected as described above.
as §3, §4

[4] abbreviates: cloned human α1A receptor, LM(tk−) cell membranes, read-out: pKi alpha-1 1a (converted).
The mark [5] stands for this setting: cloned human α1B receptor, LM(tk−) cell membranes, read-out: pKi alpha-1 1b (converted).
The mark [6] stands for this setting: cloned human α1C receptor, LM(tk−) cell membranes, read-out: pKi alpha-1 1c (converted).
Setting [7] is: cloned human receptor, LM(tk-) cell membranes, mean, read-out: PKi alpha-1 1a (converted).
The mark [8] stands for this setting: cloned human receptor, LM(tk-) cell membranes, mean, read-out: PKi alpha-1 1b (converted).
Where [9] appears, read: cloned human receptor, LM(tk-) cell membranes, mean, read-out: PKi alpha-1 1c (converted).

With `CCC1=C(C(=O)NC)C(c2ccc([N+](=O)[O-])cc2)C(C(=O)NCCCN2CCC(C(c3ccccc3)c3ccccc3)CC2)=C(CC)N1` (centres unmarked) [Example 109, 2,6-Diethyl-1,4-dihydro-5-(N-methyl) carboxamido-4-(4-nitrophenyl)-3-{-[13-(4-diphenylmethylpiperidin-1-yl)propyl]}carboxamidopyridine], the melting point was 128 °C (dec.). Further, in data set [1] (setting [4]), the Ki was 851 nM. The Ki in data set [2] (setting [5]) is 275 nM. Besides, in data set [3] (setting [6]), the Ki is 66.1 nM.
For the molecule `CCOC(=O)C1(c2ccccc2)CCN(CCCNC(=O)C2=C(COCCN=[N+]=[N-])NC(CC)=C(C(=O)NC)C2c2ccc([N+](=O)[O-])cc2)CC1` (centres unmarked) [Example 191, 2-[(2-Azidoethoxy)methyl]-3-{N-[3-(4-ethoxycarbonyl-4-phenyl-piperidin-1-yl)propyl]}carboxamido-1,4-dihydro-6-ethyl-5-(N-methyl)carboxamido-4-(4-nitrophenyl)pyridine], the melting point lay in the range of 67 to 68 °C. In addition, the Ki in data set [1] (setting [7]) is 1950 nM. In data set [2] (setting [8]), the Ki was 1350 nM. Besides, the Ki in data set [3] (setting [9]) is 8.13 nM.
Regarding `CCC1=C(C(=O)NC)C(c2ccc([N+](=O)[O-])cc2)C(C(=O)NCCCN2CCC(C(N)=O)(c3ccccc3)CC2)=C(CC)N1` (centres unmarked) [Example 110, 3-{N-[3-(4-Carboxamido-4-phenylpiperidin-1-yl)propyl]}carboxamido-2,6-diethyl-1,4-dihydro-5-(N-methyl)carboxamido-4-(4-nitrophenyl)pyridine], the melting point was 124 °C (dec.). Besides, in data set [1] (setting [4]), the Ki is 17800 nM. The Ki in data set [2] (setting [5]) was 31600 nM. In data set [3] (setting [6]), the Ki is 1550 nM.
The like results for `CCNC(=O)C1=C(CC)NC(CC)=C(C(=O)NCCCN2CCC(c3ccccc3)(c3ccc(OC)cc3)CC2)C1c1ccc([N+](=O)[O-])cc1` (centres unmarked) [Example 111, 2,6-Diethyl-5-(N-ethyl)carboxamido-1,4-dihydro-3-{N-[3-(4-(4-methoxy)phenyl-4-phenylpiperidin-1-yl)propyl]}carboxamido-4-(4-nitrophenyl)pyridine] were, in that order, 172 °C (dec.), 1780 nM, 955 nM and 5.75 nM.
In the same order, the values of `CCNC(=O)C1=C(CC)NC(COCCN=[N+]=[N-])=C(C(=O)NCCCN2CCC(c3ccccc3)(c3ccccc3)CC2)C1c1ccc([N+](=O)[O-])cc1` (centres unmarked) [Example 145, 2-((2-Azidoethyl)oxy)methyl-6-methyl-6-ethyl-5-(N-ethyl) carboxamido-1,4-dihydro-4-(4-nitro)phenyl-3-(N-(3-(4,4-diphenylpiperidin-1-yl)propyl))carboxamidopyridine] are 82 to 87 °C, 380 nM, 324 nM and 6.17 nM.
Molecule `CCOC(=O)C1(c2ccccc2)CCN(CCCNC(=O)C2=C(CC)NC(CC)=C(C(=O)NC)C2c2ccc([N+](=O)[O-])cc2)CC1` (centres unmarked) [Example 181, 2,6-Diethyl-1,4-dihydro-3-{N-[3-(4-ethoxycarbonyl-4-phenylpiperidin-1-yl)propyl]}carboxamido-5-(N-methyl) carboxamido-4-(4-nitrophenyl)pyridine] came in with a melting point of 95 to 97 °C. Moreover, the Ki in data set [1] (setting [7]) was 3470 nM. Further, the Ki in data set [2] (setting [8]) was 1070 nM. In data set [3] (setting [9]), the Ki is 4.07 nM.
The like results for `CC1=C(C(N)=O)C(c2ccc([N+](=O)[O-])cc2)C(C(=O)NCCCN2CCC(C#N)(c3ccccc3)CC2)=C(COCCN=[N+]=[N-])N1` (centres unmarked) [Example 214, 2-((2-Azidoethyl)oxy)methyl-5-carboxamido-3-(N-(3-(4-cyano-4-phenylpiperidin-1-yl)propyl)) carboxamido-1,4-dihydro-6-methyl-4-(4-nitro)phenylpyridine] were, in that order, 81 °C (dec.), 2570 nM, 776 nM and 6.17 nM.
As for `CC1=C(C(=O)O)C(c2ccc([N+](=O)[O-])cc2)C(C(=O)NCCCN2CCC(c3ccccc3)(c3ccccc3)CC2)=C(COCCN=[N+]=[N-])N1` (centres unmarked) [Example 153, 2-((2-Azidoethyl)oxy)methyl-1,4-dihydro-6-methyl-4-(4-nitro) phenyl-3-(N-(3-(4,4-diphenylpiperidin-1-yl)propyl))carboxamidopyridine-5-carboxylic acid], the melting point was 135 °C (dec.). Also, in data set [1] (setting [4]), the Ki was 1910 nM. In data set [2] (setting [5]), the Ki is 380 nM. The Ki in data set [3] (setting [6]) is 24 nM.
The molecule `CCOC(=O)C1(c2ccccc2)CCN(CCCNC(=O)C2=C(COCCN=[N+]=[N-])NC(CC)=C(C(=O)OC)C2c2ccc([N+](=O)[O-])cc2)CC1` (centres unmarked) [Example 195, 2-[(2-Azidoethoxy)methyl]-3-{N-[3-(4-ethoxycarbonyl-4-phenylpiperidin-1-yl)propyl]}carboxamido-1,4-dihydro-6-ethyl-5-methoxycarbonyl-4-(4-nitrophenyl)pyridine] had a melting point of 56 to 57 °C. Also, the Ki in data set [1] (setting [7]) is 288 nM. For the same molecule, the Ki in data set [2] (setting [8]) is 129 nM. Also, the Ki in data set [3] (setting [9]) is 7.08 nM.
Turning to `COC(=O)C1(c2ccccc2)CCN(CCCNC(=O)C2=C(C)NC(C)=C(C(=O)OCCC#N)C2c2ccc([N+](=O)[O-])cc2)CC1` (centres unmarked) [Example 203, 5-(2-Cyanoethoxycarbonyl)-1,4-dihydro-2,6-dimethyl-3-{N-[3-(4-methoxycarbonyl-4-phenylpiperidin-1-yl)propyl]}carbo xamido-4-(4-nitrophenyl)pyridine], the melting point was 73 to 74 °C. Besides, in data set [1] (setting [7]), the Ki is 759 nM.

For orientation: melting point means the temperature, or range, at which the solid turns liquid.
